Experiments:
Assay in all cases: relative viability (nuclei count vs DMSO), 5 days (fraction); higher = more cells survive
201T = system: 201T
How it was run: (§1)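 Relative viability divides the nuclei count in treated wells by that in vehicle wells. Lung cancer cell lines were seeded in 1536-well plates, dosed by pin tool the next day, and fixed and stained after 5 days in one step with final 0.05% Triton X-100, 1% formaldehyde and 1 ug/ml Hoechst. Dosing was a single drug or a fixed anchor-drug dose plus five library-drug doses (not always all listed) in √10 steps, and values are medians of duplicate plates imaged at 4×.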

BEN = system: BEN
How it was run: as §1

EMC-BAC-2 = system: EMC-BAC-2
How it was run: as §1

HARA = system: HARA
How it was run: as §1

HCC-44 = system: HCC-44
How it was run: as §1

LOU-NH91 = system: LOU-NH91
How it was run: as §1

NCI-H1395 = system: NCI-H1395
How it was run: as §1

NCI-H1666 = system: NCI-H1666
How it was run: as §1

NCI-H1993 = system: NCI-H1993
How it was run: as §1

NCI-H2009 = system: NCI-H2009
How it was run: as §1

NCI-H2023 = system: NCI-H2023
How it was run: as §1

NCI-H2087 = system: NCI-H2087
How it was run: as §1

NCI-H2126 = system: NCI-H2126
How it was run: as §1

NCI-H2347 = system: NCI-H2347
How it was run: as §1

NCI-H23 = system: NCI-H23
How it was run: as §1

NCI-H3122 = system: NCI-H3122
How it was run: as §1

NCI-H441 = system: NCI-H441
How it was run: as §1

NCI-H596 = system: NCI-H596
How it was run: as §1

NCI-H647 = system: NCI-H647
How it was run: as §1

NCI-H727 = system: NCI-H727
How it was run: as §1

NCI-H838 = system: NCI-H838
How it was run: as §1

**Q.** What does the source list for Clc1ccc(Nc2nnc(Cc3ccncc3)c3ccccc23)cc1 [Vatalanib] + CC1(C)CCC(c2ccc(Cl)cc2)=C(CN2CCN(c3ccc(C(=O)NS(=O)(=O)c4ccc(N[C@H](CCN5CCOCC5)CSc5ccccc5)c(S(=O)(=O)C(F)(F)F)c4)cc3)CC2)C1 [Navitoclax] (partner 0.5 µM)?
**A.** relative viability (201T; first compound 0.04 µM): 1.17; relative viability (201T; first compound 0.1265 µM): 1.27; relative viability (201T; first compound 0.4 µM): 1.25; relative viability (201T; first compound 1.265 µM): 1.25; relative viability (201T; first compound 4 µM): 1.21; relative viability (BEN; first compound 0.04 µM): 0.0773; relative viability (BEN; first compound 0.1265 µM): 0.0662; relative viability (BEN; first compound 0.4 µM): 0.0617; relative viability (BEN; first compound 1.265 µM): 0.0622; relative viability (BEN; first compound 4 µM): 0.0608; relative viability (EMC-BAC-2; first compound 0.04 µM): 1.18; relative viability (EMC-BAC-2; first compound 0.1265 µM): 1.12; relative viability (EMC-BAC-2; first compound 0.4 µM): 1.23; relative viability (EMC-BAC-2; first compound 1.265 µM): 1.15; relative viability (EMC-BAC-2; first compound 4 µM): 1.14; relative viability (HARA; first compound 0.04 µM): 1.08; relative viability (HARA; first compound 0.1265 µM): 1.03; relative viability (HARA; first compound 0.4 µM): 1.18; relative viability (HARA; first compound 1.265 µM): 1.11; relative viability (HARA; first compound 4 µM): 1.13; relative viability (HCC-44; first compound 0.04 µM): 0.933; relative viability (HCC-44; first compound 0.1265 µM): 0.916; relative viability (HCC-44; first compound 0.4 µM): 0.93; relative viability (HCC-44; first compound 1.265 µM): 0.915; relative viability (HCC-44; first compound 4 µM): 0.919; relative viability (LOU-NH91; first compound 0.04 µM): 0.703; relative viability (LOU-NH91; first compound 0.1265 µM): 0.558; relative viability (LOU-NH91; first compound 0.4 µM): 0.61; relative viability (LOU-NH91; first compound 1.265 µM): 0.612; relative viability (LOU-NH91; first compound 4 µM): 0.61; relative viability (NCI-H1395; first compound 0.04 µM): 1.17; relative viability (NCI-H1395; first compound 0.1265 µM): 1.07; relative viability (NCI-H1395; first compound 0.4 µM): 1.37; relative viability (NCI-H1395; first compound 1.265 µM): 1.07; relative viability (NCI-H1395; first compound 4 µM): 1.08; relative viability (NCI-H1666; first compound 0.04 µM): 0.958; relative viability (NCI-H1666; first compound 0.1265 µM): 0.93; relative viability (NCI-H1666; first compound 0.4 µM): 0.829; relative viability (NCI-H1666; first compound 1.265 µM): 0.963; relative viability (NCI-H1666; first compound 4 µM): 0.845; relative viability (NCI-H1993; first compound 0.04 µM): 0.894; relative viability (NCI-H1993; first compound 0.1265 µM): 0.935; relative viability (NCI-H1993; first compound 0.4 µM): 0.826; relative viability (NCI-H1993; first compound 1.265 µM): 0.789; relative viability (NCI-H1993; first compound 4 µM): 0.63; relative viability (NCI-H2009; first compound 0.04 µM): 1.18; relative viability (NCI-H2009; first compound 0.1265 µM): 1.09; relative viability (NCI-H2009; first compound 0.4 µM): 1.24; relative viability (NCI-H2009; first compound 1.265 µM): 1.12; relative viability (NCI-H2009; first compound 4 µM): 1.13; relative viability (NCI-H2023; first compound 0.04 µM): 1; relative viability (NCI-H2023; first compound 0.1265 µM): 1.02; relative viability (NCI-H2023; first compound 0.4 µM): 1.08; relative viability (NCI-H2023; first compound 1.265 µM): 0.892; relative viability (NCI-H2023; first compound 4 µM): 0.982; relative viability (NCI-H2087; first compound 0.04 µM): 1.11; relative viability (NCI-H2087; first compound 0.1265 µM): 1.09; relative viability (NCI-H2087; first compound 0.4 µM): 1.07; relative viability (NCI-H2087; first compound 1.265 µM): 0.994; relative viability (NCI-H2087; first compound 4 µM): 0.964; relative viability (NCI-H2126; first compound 0.04 µM): 0.834; relative viability (NCI-H2126; first compound 0.1265 µM): 0.914; relative viability (NCI-H2126; first compound 0.4 µM): 0.851; relative viability (NCI-H2126; first compound 1.265 µM): 0.801; relative viability (NCI-H2126; first compound 4 µM): 0.76; relative viability (NCI-H2347; first compound 0.04 µM): 0.861; relative viability (NCI-H2347; first compound 0.1265 µM): 0.78; relative viability (NCI-H2347; first compound 0.4 µM): 0.885; relative viability (NCI-H2347; first compound 1.265 µM): 0.739; relative viability (NCI-H2347; first compound 4 µM): 0.796; relative viability (NCI-H23; first compound 0.04 µM): 0.772; relative viability (NCI-H23; first compound 0.1265 µM): 0.699; relative viability (NCI-H23; first compound 0.4 µM): 0.841; relative viability (NCI-H23; first compound 1.265 µM): 0.745; relative viability (NCI-H23; first compound 4 µM): 0.825; relative viability (NCI-H3122; first compound 0.04 µM): 1.03; relative viability (NCI-H3122; first compound 0.1265 µM): 1.02; relative viability (NCI-H3122; first compound 0.4 µM): 1; relative viability (NCI-H3122; first compound 1.265 µM): 1.06; relative viability (NCI-H3122; first compound 4 µM): 1.02; relative viability (NCI-H441; first compound 0.04 µM): 0.886; relative viability (NCI-H441; first compound 0.1265 µM): 0.685; relative viability (NCI-H441; first compound 0.4 µM): 0.469; relative viability (NCI-H441; first compound 1.265 µM): 0.755; relative viability (NCI-H441; first compound 4 µM): 0.54; relative viability (NCI-H596; first compound 0.04 µM): 0.972; relative viability (NCI-H596; first compound 0.1265 µM): 1; relative viability (NCI-H596; first compound 0.4 µM): 1.08; relative viability (NCI-H596; first compound 1.265 µM): 0.767; relative viability (NCI-H596; first compound 4 µM): 0.986; relative viability (NCI-H647; first compound 0.04 µM): 1.08; relative viability (NCI-H647; first compound 0.1265 µM): 1.01; relative viability (NCI-H647; first compound 1.265 µM): 1.05; relative viability (NCI-H647; first compound 4 µM): 0.957; relative viability (NCI-H727; first compound 0.04 µM): 0.428; relative viability (NCI-H727; first compound 0.1265 µM): 0.403; relative viability (NCI-H727; first compound 0.4 µM): 0.516; relative viability (NCI-H727; first compound 1.265 µM): 0.407; relative viability (NCI-H727; first compound 4 µM): 0.46; relative viability (NCI-H838; first compound 0.04 µM): 1.08; relative viability (NCI-H838; first compound 0.1265 µM): 1.11; relative viability (NCI-H838; first compound 0.4 µM): 1.19; relative viability (NCI-H838; first compound 1.265 µM): 1.07; relative viability (NCI-H838; first compound 4 µM): 1.18

Reference: the supplement of paper PMC10307832
